Earlier results on 88 compounds are cited in the CATMoS acute toxicity set (Mansouri et al. 2021).

“And” between values parts separate entries of the source, which are not always exact repeats. Identical values can stand only once.

The data set can be described thus: rat acute oral toxicity. Particulars: in vivo.
Usually LD50 stands for the dose expected to kill half of the subjects tested. Take `Cc1c([N+](=O)[O-])cc(N)cc1[N+](=O)[O-]`: the median lethal dose (LD50) was 959 mg/kg. In the case of `CCCCC(C#N)(Cn1ccnc1)c1ccccc1` (stereo not drawn), the LD50 was 1590 mg/kg. Consider `Cn1c(CCCC(=O)O)nc2cc(N(CCCl)CCCl)ccc21`, for which the LD50 was 200 mg/kg. For the compound `CN(N=O)c1ccccc1`, the LD50 is 225 mg/kg. With `Cc1cccc(OCC(O)CNC(C)(C)C)c1C` (stereo not drawn), the LD50 is 575 mg/kg. Turning to `CCOC(=O)c1ccc([N+](=O)[O-])cc1`, the median lethal dose (LD50) is 2660 mg/kg.

As to `NC(=O)c1cc2cc(CN3CCCCC3)ccc2o1`, the LD50 is 250 mg/kg. For `C[N+](C)(C)CCCCCCCCCC[N+](C)(C)C`, the LD50 was 85 mg/kg. Take `CC(C)CCN(C)C`: the LD50 was 225 mg/kg. Turning to `CCN(CC)CCNC(=O)c1cc(Cl)c(N)cc1OCc1ccccc1`, the median lethal dose (LD50) is 220 mg/kg. `COc1cc(OC)cc(OCCO)c1`: the LD50 is 4050 mg/kg. On to `OCCC1CCN(CCC=C2c3ccc(F)cc3Sc3ccc(C(F)(F)F)cc32)CC1`, for which the median lethal dose (LD50) is 1.5 mg/kg.

As for `CCC(C)OC(C)=O` (stereo not drawn), the LD50 is 3200 mg/kg.

For the compound `COP(=S)(OC)SC1CSC=CO1` (stereo not drawn), the LD50 was 100 mg/kg.

As for `Cn1c(=O)c2c(ncn2CCOC(=O)C(C)(C)Oc2ccc(Cl)cc2)n(C)c1=O`, the median lethal dose (LD50) is 17000 mg/kg. `CCCCSC(C)C1(CC)C(=O)N=C(O)NC1=O` (stereo not drawn): the LD50 is 582 mg/kg. For the compound `Cn1c(=O)c2c(ncn2CC2SCCS2)n(C)c1=O`, the LD50 was 1840 mg/kg. In the case of `CC1OCC(CN(C)C)O1` (stereo not drawn), the LD50 was 575 mg/kg.

With `O=C1O[C@@H]2[C@@H](O)[C@H](O)O[C@@H]2[C@H]1O`, the LD50 is 10700 mg/kg.

With `COC1=CC=C2[C@H]3Cc4ccc(OC)c5c4[C@@]2(CCN3C)[C@H]1O5`, the LD50 was 114 mg/kg. On to `CCOC(=O)C1(c2ccccc2)CCN(CCOCC2CCCO2)CC1` (stereo not drawn), for which the median lethal dose (LD50) was 135 mg/kg. As to `COC(=O)OC`, the 50% lethal dose (LD50) is 13000 mg/kg.

`ClCC1C(CCl)C2(Cl)C(Cl)=C(Cl)C1(Cl)C2(Cl)Cl` (stereo not drawn): the LD50 was 200 mg/kg. Consider `C[N+](C)(C)Cc1ccccc1`, for which the LD50 is 25 mg/kg. As to `CCC1C(C)=NN=C(c2ccc(OC)c(OC)c2)c2cc(OC)c(OC)cc21` (stereo not drawn), the LD50 was 825 mg/kg. `C[N+](C)(C)CC[N+]1(C)Cc2c(Cl)c(Cl)c(Cl)c(Cl)c2C1`: the LD50 was 300 mg/kg.

As to `NC(=S)Cc1cccc2ccccc12`, the LD50 was 60 mg/kg. With `NNc1nncc2ccccc12`, the LD50 was 90 mg/kg. Turning to `COC(=O)c1c(C(F)F)nc(C(F)(F)F)c(C(=O)OC)c1CC(C)C`, the LD50 was 1420 mg/kg. As for `CCCCCOc1c(Br)cc(Br)cc1COCCN(CC)CC`, the LD50 is 350 mg/kg. Take `CCOC(=O)COP(=S)(OCC)OCC`: the 50% lethal dose (LD50) was 1000 mg/kg.

As for `OCCN1CCN(CCCN2c3ccccc3C=Cc3ccccc32)CC1`, the median lethal dose (LD50) is 1110 mg/kg and 900 mg/kg.

On to `CS(=O)c1ccc(Cl)cc1` (stereo not drawn), for which the LD50 is 463 mg/kg. Turning to `CCOC(=O)C=Cc1ccccc1`, the LD50 was 4000 mg/kg. Consider `O=C(O)c1cc(O)c(O)c(OC(=O)c2cc(O)c(O)c(O)c2)c1`, for which the 50% lethal dose (LD50) is 2260 mg/kg. For the compound `FC(F)(F)c1ccccc1`, the LD50 was 15000 mg/kg. Take `NCCOS(N)(=O)=O`: the 50% lethal dose (LD50) was 7460 mg/kg. Take `CC(C)OP(=S)(CCl)Sc1ccc(Cl)cc1` (stereo not drawn): the LD50 was 26 mg/kg. As to `COC1CCC=CO1` (stereo not drawn), the LD50 is 1410 mg/kg. Turning to `C[N+](C)([O-])CCC=C1c2ccccc2CCc2ccccc21`, the 50% lethal dose (LD50) is 1800 mg/kg.

`CCOc1ccc(NC(=O)CC(C)=O)cc1`: the LD50 was 176 mg/kg. Turning to `O=[n+]1c2c(n([O-])c3ccccc31)CCCC2`, the median lethal dose (LD50) is 1360 mg/kg.

As for `NC(=O)C1CCN(CCCN2c3ccccc3Sc3ccc(Cl)cc32)CC1`, the LD50 was 620 mg/kg.

Take `CN1C(=O)CN=C(c2ccccc2F)c2cc(Cl)ccc21`: the LD50 is 1740 mg/kg. Turning to `C#CCSP(=O)(OCC)OCC`, the median lethal dose (LD50) was 18 mg/kg. Regarding `CC=Cc1ccc(OC(C)=O)c(OC)c1`, the median lethal dose (LD50) was 3450 mg/kg.

As to `CCOP(=O)(OCC)C(SCC)(Sc1ccccc1)P(=O)(OCC)OCC`, the 50% lethal dose (LD50) was 24 mg/kg. With `Cc1cc(C)nc(Nc2ccccc2)n1`, the LD50 was 4150 mg/kg. As to `CC(C)NCC(O)COc1cccc2cc(C(C)O)oc12` (stereo not drawn), the LD50 is 2130 mg/kg. Consider `CCOc1ccc(-n2c(C)nc3ccccc3c2=O)cc1`, for which the median lethal dose (LD50) was 4800 mg/kg. With `O=C(OCC(Br)(Br)Br)c1ccco1`, the LD50 is 1500 mg/kg. For the compound `C=CC(=O)OCC(=O)OCC`, the LD50 is 215 mg/kg. Consider `CNC(=O)ON=C1SC(=NC(C)C)SC1(C)C`, for which the median lethal dose (LD50) was 8.9 mg/kg.

As for `CC(=O)CCC(C)=O`, the LD50 is 2080 mg/kg.

With `CC(=CC(O)(C(F)(F)F)C(F)(F)F)CC(O)(C(F)(F)F)C(F)(F)F`, the LD50 was 18 mg/kg. Take `CCCCOC(=O)c1ccccc1C(=O)OCc1ccccc1`: the LD50 is 2330 mg/kg.

Regarding `NCCCOCCOCCO`, the LD50 was 6500 mg/kg.

For `O=C(O)C1CCc2cc(C3CCCCC3)ccc21` (stereo not drawn), the median lethal dose (LD50) is 287 mg/kg and 230 mg/kg. On to `CCOP(=S)(OCC)SCn1ncccc1=O`, for which the median lethal dose (LD50) is 2.5 mg/kg. Take `O=C1CN(N=Cc2ccc([N+](=O)[O-])o2)C(=O)N1`: the LD50 was 604 mg/kg. In the case of `O=C1c2ccccc2S(=O)(=O)N1CCCCNC[C@H]1CCc2ccccc2O1`, the LD50 is 324 mg/kg. With `COc1cc2nc(N3CCN(C(=O)C4CCCO4)CC3)nc(N)c2cc1OC` (stereo not drawn), the LD50 is 5500 mg/kg. With `O=C(O)/C=C\Cl`, the 50% lethal dose (LD50) was 320 mg/kg.

Consider `O=C(O)C1CSCN1` (stereo not drawn), for which the LD50 was 875 mg/kg. Consider `CCOc1ccc(/C=C2\NCCc3cc(OCC)c(OCC)cc32)cc1OCC`, for which the median lethal dose (LD50) was 540 mg/kg. Regarding `CCOP(N)(=O)SC` (stereo not drawn), the LD50 is 5 mg/kg. Take `COC(C)=O`: the LD50 is 6480 mg/kg. For the compound `C=CCSCC1(C(C)CCC)C(=O)N=C(O)NC1=O` (stereo not drawn), the median lethal dose (LD50) was 702 mg/kg. For the compound `CC(=O)N1N=C(c2ccc(N)cc2)c2cc3c(cc2CC1C)OCO3` (stereo not drawn), the LD50 was 200 mg/kg. Consider `CCCN=C(NCCC)C(OCC)c1ccccc1` (stereo not drawn), for which the median lethal dose (LD50) is 95 mg/kg. In the case of `COC(CNCc1ccccc1)c1cccc(C(F)(F)F)c1` (stereo not drawn), the 50% lethal dose (LD50) was 1720 mg/kg. For `CSCc1cnccn1`, the 50% lethal dose (LD50) was 2150 mg/kg.

For `ClCc1c(Cl)cc(Cl)cc1Cl`, the LD50 is 3080 mg/kg. For the compound `NCCc1c[nH]c2ccccc12`, the median lethal dose (LD50) is 300 mg/kg. Turning to `NCCNCCO`, the 50% lethal dose (LD50) was 3000 mg/kg. As for `CC(C)=CCN1CC[C@@]2(C)c3cc(O)ccc3C[C@@H]1[C@@H]2C` (racemic), the median lethal dose (LD50) was 1110 mg/kg. Consider `COc1ccc2c(c1)c(CC(=O)OCC(C(=O)O)c1ccccc1)c(C)n2C(=O)c1ccc(Cl)cc1` (stereo not drawn), for which the LD50 is 140 mg/kg. As for `O=C(C1CCCCC1)N1CC(=O)N2CCc3ccccc3C2C1` (stereo not drawn), the LD50 is 2840 mg/kg. For the compound `Cc1ccc(Cl)c(OCC(O)CNC(C)(C)C)c1` (stereo not drawn), the LD50 is 518 mg/kg. Take `OC(CNCCNCC(O)COc1ccccc1)COc1ccccc1` (stereo not drawn): the LD50 is 2920 mg/kg. `CCCCc1c(C)nc2cccc(C)n2c1=O`: the LD50 was 1100 mg/kg.

For the compound `COC(=O)C1C2CC3c4[nH]c5cc(OC)ccc5c4CCN3CC2CC(OC2CCCCO2)C1OC` (stereo not drawn), the LD50 is 173 mg/kg. `O=S(=O)(O)c1c(Cl)c(Cl)c(Cl)c2[nH]c(C(F)(F)F)nc12`: the LD50 is 218 mg/kg.

As to `CC(C(=O)O)c1ccc2c(c1)Cc1cccnc1O2` (stereo not drawn), the LD50 was 59.5 mg/kg. In the case of `C1CCN2C[C@@H]3C[C@@H](C[C@H]2C1)N1CCCC[C@@H]31`, the LD50 was 960 mg/kg. Consider `CCN(CC)c1ccccc1`, for which the LD50 is 782 mg/kg. For the compound `CN(C)C(CSS(=O)(=O)c1ccccc1)CSS(=O)(=O)c1ccccc1`, the LD50 was 1100 mg/kg. Regarding `O=C1NCc2ccccc2O1`, the LD50 is 1050 mg/kg.
